This data set in a line: Test 1: solubility of Edaravone in various aqueous solubilizer solutions (saturated solution at 4° C., HPLC). The format is physicochemical. The following applies: aqueous with cosolvent or surfactant or cyclodextrin, thermodynamic from solid. On the procedure:
Water for injection (5 mL) was added to 5 mL of each of ethanol, propylene glycol, polyethylene glycol 400 and N,N-dimethylacetamide widely used as a solubilizer for an intravenous injection, followed by stirring. Edaravone was added to the resulting aqueous solubilizer solution and the mixture was stirred in a thermostat maintained at 4° C. by using a stirrer at a fixed but not bubbling speed all day and night. After completion of the stirring, a portion of Edaravone which had remained undissolved was checked visually to confirm that each solution thus obtained was a saturated aqueous solution of Edaravone. Then, the solution was quickly filtered through a membrane filter (pore size: 0.45 μm) kept at 4° C. and the amount of Edaravone contained in the filtrate was measured by HPLC method as explained below. Further, the maximum amount of each of the solubilizers used a day as an injection for intravenous administration was also shown (Iyakuhin-tenkabutu-jiten 2000 (published by Yakuji-nippou-sha), p. 127, 264 and 229 to 230. The maximum amount of ethanol was calculated based on the amount used for NIMOTOP IV (registered trademark, Bayer Co.)) and its solubilizing effect on Edaravone was calculated as a numerical term.
Measuring Method by HPLC and its Conditions:
By liquid chromatography (LC) using ethyl paraaminobenzoate as an internal standard substance, a peak area ratio of Edaravone to the internal standard substance was found and based on it, the concentration of Edaravone was determined. • Detector: Ultraviolet spectrophotometer (wavelength measured: 240 nm) • Column: A stainless tube having inside diameter of about 4 mm and length of about 15 cm and filled with octadecylsilylated silica-gel 5 μm was used at a fixed temperature near 50° C. • Mobile phase: A (3:1) mixed solution of 10 mM aqueous acetic acid solution and methanol, adjusted to pH 5.5 with aqueous ammonia • Flow rate: adjusted so that the retention time of Edaravone would be about 8 minutes.

Values after ≈ are worked out from the molar mass of the structure shown.

Usually solubility stands for the dissolved amount per volume that the medium holds. `CC1=NN(c2ccccc2)C(=O)C1` [Edaravone, 3-Methyl-l-phenyl-2-pyrazolin-5-one]: the solubility reads like this: (50 v/v % N,N-dimethylacetamide in water, in 50 v/v % N,N-Dimethylacetamide, 4° C.) 20 mg/mL (≈ 115 mM); (50 v/v % ethanol in water, in 50 v/v % Ethanol, 4° C.) 10 mg/mL (≈ 57.4 mM); (50 v/v % polyethylene glycol 400 in water, in 50 v/v % Polyethylene glycol 400, 4° C.) 13 mg/mL (≈ 74.6 mM); (50 v/v % propylene glycol in water, in 50 v/v % Propylene glycol, 4° C.) 6 mg/mL (≈ 34.4 mM).

Source of the values: US7211596B2, “Stable high-concentration injection containing pyrazolone derivative” (Mitsubishi Pharma Corporation, priority 2001, dated 2007).
